Measured values published in paper PMC11313193, “Which Constituents Determine the Antioxidant Activity and Cytotoxicity of Garlic? Role of Organosulfur Compounds and Phenolics” (International Journal of Molecular Sciences, 2024).
pIC50: −log10 of the molar value. Like-named read-outs stand apart in the source and are kept apart here.

How the values were obtained:
[1] = DPPH^● decolorization assay; details: 30 min at ambient temperature in the dark, absorbance at 517 nm
Protocol: The assay was performed as described in a previous article. Briefly, increasing volumes of solutions of the studied compounds were introduced to wells of a 96-well microplate, each with 200 μL of 0.3 mM DPPH^● solution in methanol. The reaction was allowed to proceed for 30 min at ambient temperature in the dark, and absorbance at 517 nm was read. The absorbance decrease was a measure of the antioxidant activity.
(§1) All assays were standardized with respect to Trolox. The antioxidant activity was calculated in each case as a ratio of the slope of the dependence of absorbance change on the concentration of a studied compound to the slope of the dependence of absorbance change of standard samples concerning Trolox on the concentration of Trolox. Antioxidant activities were expressed in moles of Trolox equivalents (TE)/mol of a studied compound, as described previously.

[2] = system: SKOV-3 ovarian cancer cells; assay: Cytotoxicity (Neutral Red), SKOV-3 cells; assay type: cell-based, human; details: 24 h exposure; for Concentration at which viability of SKOV-3 cells was lowered: p < 0.05; for pIC50: Homo sapiens, SK-OV-3, Neutral Red, read-out: IC50 SKOV-3
Protocol: (§2) The PEO1 cells, SKOV-3 cells, and MRC-5 cells were grown at 37 °C and 5% CO2 in RPMI + GlutaMAX medium, McCoy’s 5A medium, and the DMEM + GlutaMAX medium, respectively. The media were supplemented with 10% heat-inactivated fetal calf serum and penicillin/streptomycin. The cell viability was evaluated using the Trypan Blue exclusion test.
(§3) In the cytotoxicity experiments, cells were grown in wells of sterile 96-well plates. The seeding density was 1 × 10^4 for SKOV-3 and MRC-5 cells and 1.5 × 10^4 for PEO1 cells. The cells were allowed to grow in the incubator for 24 h. Then, the medium was removed and new medium with an examined compound was added. The stock solutions of the compounds studied diluted with the appropriate cell medium were filtered before the addition to the cells using 0.22 µm filters. No more than 0.02% of DMSO was present in the media, and it had no discernible impact on the treated cells. Cells not exposed to any compound served as a control. After another 24 h incubation, the medium was gently aspirated, and the wells were added with 2% sterile Neutral Red solution (100 µL). The plates were then incubated (37 °C, 5% CO2) for one hour. The Neutral Red solution was aspirated, and the wells were washed two times with warm (37 °C) PBS. Subsequently, 100 µL of a permeabilization mixture (water/ethanol/glacial acetic acid, 50/49/1, v/v/v) was introduced to each well. The plates were shaken at 700 rpm for 20 min and absorbance was read at a wavelength of 540 nm against 620 nm.

[3] = ABTS^● decolorization assay; details: 30 min incubation at room temperature, absorbance at 734 nm
Protocol: A modification of the ABTS^● decolorization assay was employed. Briefly, various volumes of solutions of the studied compounds were introduced to wells of a 96-well microplate, each prefilled 200 μL of ABTS^● solution. […] The drop in absorbance after 30 min incubation at room temperature was read as a measure of the antioxidant activity.
as §1

[4] = Ferric reducing antioxidant power (FRAP) assay; details: 30 min at ambient temperature, pH 3.6, absorbance at 593 nm
Protocol: The method proposed by Benzie and Strain [91] was employed with a slight modification. Briefly, increasing volumes of solutions of the studied compounds were added to wells of a 96-well microplate prefilled with 200 μL of the working solution composed of 0.3 M acetate buffer, pH 3.6 (10 volumes), 10 mM 2,4,6-tris(2-pyridyl)-s-triazine (TPTZ), in 40 mM HCl (1 volume) and 20 mM FeCl3 (1 volume), was prepared immediately before use. After 30 min incubation at ambient temperature and the absorbance of the Fe^2+-TPTZ complex was read at 593 nm.
as §1

[5] = system: PEO1 ovarian cancer cells; assay: Cytotoxicity (Neutral Red), PEO1 cells; assay type: cell-based, human; details: for pIC50: Homo sapiens, read-out: IC50 PEO1
Protocol: as §2, §3

MRC-5 fibroblasts = assay: Cytotoxicity (Neutral Red), MRC-5 fibroblasts; assay type: cell-based, human; details: for Concentration at which viability of MRC-5 cells was lowered: p < 0.05; for pIC50: read-out: IC50 MRC-5
Protocol: as §2, §3

[6] = system: breast cancer MCF-7 cells; set-up: method as in PMID 18817629; details: 24 h exposure; read-out: Concentration decreasing viability of MCF-7 cells to about 50%; cited from earlier work
[7] = system: prostatic carcinoma LNCaP cells; set-up: method as in PMID 16142693; details: 100 μM, 24 h exposure; cited from earlier work
[8] = system: colorectal cancer HCT-116 cells; set-up: method as in PMID 19202565; details: 400 μM, 24 h exposure; cited from earlier work
[9] = system: lung epithelial BEAS-2B cells; set-up: method as in earlier work; details: 1.5 mM, 24 h exposure; cited from earlier work
lung cancer A549 cells = system: lung cancer A549 cells; set-up: method as in PMID 16024053; details: 200 μM, 24 h exposure; cited from earlier work
[10] = system: microsomal lipid peroxidation; set-up: method as in PMID 16822206; details: cited from earlier work
[11] = system: cervical epidermoid carcinoma Ca Ski cells; set-up: method as in PMID 19035312; details: 24 h exposure; read-out: Concentration decreasing viability of Ca Ski cells to about 50%; cited from earlier work
MDA-MB-468 cells = system: MDA-MB-468 cells; set-up: method as in earlier work; details: 1.5 mM, 24 h exposure; cited from earlier work
[12] = system: colon carcinoma HT-29 cells; set-up: method as in PMID 24282361; details: after 48 h exposure; read-out: Concentration decreasing proliferation of HT-29 cells by 50%; cited from earlier work
B16 melanocytes = system: B16 melanocytes; set-up: method as in PMID 33178586; details: read-out: Concentration decreasing proliferation of B16 melanocytes by 50%; cited from earlier work
A375 melanocytes = system: A375 melanocytes; set-up: method as in PMID 33178586; details: read-out: Concentration decreasing proliferation of A375 melanocytes by 50%; cited from earlier work
neuroblastoma N2a cells = system: neuroblastoma N2a cells; set-up: method as in PMID 24760364; details: after 24 h; read-out: Concentration decreasing proliferation of N2a cells by 50%; cited from earlier work
[13] = system: colorectal carcinoma HCT-15 cells; set-up: method as in PMID 24282361; details: after 48 h exposure; read-out: Concentration decreasing proliferation of HCT-15 cells by 50%; cited from earlier work
[14] = system: breast cancer MCF-7 cells; set-up: method as in PMID 32286702; details: 1 mM, 24 h exposure; cited from earlier work
[15] = system: breast cancer HCC-70 cells; set-up: method as in PMID 32286702; details: 1 mM, 24 h exposure; cited from earlier work
SKOV-3 cells = system: SKOV-3 cells; set-up: method as in PMID 16675472; details: cited from earlier work
[16] = system: A2780 human ovarian carcinoma cells; set-up: method as in PMID 24362328; details: prolonged treatment; cited from earlier work
[17] = PEO1, 24 h exposure, Neutral Red
[18] = Homo sapiens, MRC5, 24 h exposure, Neutral Red

C=CCSSSCC=C [Diallyl trisulfide, diallyl trisulfide]
Antioxidant activity, DPPH^● Decolorization [1]: 0.005 ± 0.0003 mol Trolox equivalents (TE)/mol compound | Concentration at which viability of SKOV-3 cells was lowered [2]: 50 µM | pIC50 [2]: 3.81 | Antioxidant activity, ABTS^● Decolorization [3]: 0.030 ± 0.006 mol Trolox equivalents (TE)/mol compound | Antioxidant activity, FRAP [4]: 0.0022 ± 0.0004 mol Trolox equivalents (TE)/mol compound | Concentration at which viability of PEO1 cells was lowered ([5]; 24 h exposure, p < 0.05): 50 µM | pIC50 [5, 17]: 3.14 | Concentration range with no significant decrease in viability of MRC-5 cells (MRC-5 fibroblasts; 24 h exposure): 0 to 50 µM

C=CCSCC=C [Allyl sulfide]
Antioxidant activity, DPPH^● Decolorization [1]: −0.006 ± 0.011 mol Trolox equivalents (TE)/mol compound | Concentration range with no significant decrease in viability of SKOV-3 cells [2]: up to 100 µM | Concentration at which viability of SKOV-3 cells was lowered [2]: 200 to 500 µM | pIC50 [2]: 3.61 | Antioxidant activity, ABTS^● Decolorization [3]: 0.016 ± 0.010 mol Trolox equivalents (TE)/mol compound | Antioxidant activity, FRAP [4]: 0.0026 ± 0.0010 mol Trolox equivalents (TE)/mol compound | Concentration range with no significant decrease in viability of PEO1 cells ([5]; 24 h exposure): up to 100 µM | pIC50 [5, 17]: 3.59 | Concentration range with no significant decrease in viability of MRC-5 cells (MRC-5 fibroblasts; 24 h exposure): up to 100 µM | Concentration at which viability of MRC-5 cells was lowered (MRC-5 fibroblasts; 24 h exposure): 200 to 500 µM | pIC50 (MRC-5 fibroblasts; [18]): 3.79

C=CCSSCC=C [Diallyl disulfide, diallyl disulfide]
pIC50 [6]: 3.40 | Antioxidant activity, DPPH^● Decolorization [1]: 0.049 ± 0.014 mol Trolox equivalents (TE)/mol compound | Reduction of survival of LNCaP cells [7]: about 30% | Survival of HCT-116 cells (decreased to) [8]: ca. 80% | Viability of BEAS-2B cells (reduced to) [9]: about 75% | Antioxidant activity, ABTS^● Decolorization [3]: 0.013 ± 0.006 mol Trolox equivalents (TE)/mol compound | Reduction of survival of A549 cells (lung cancer A549 cells): about 20% | Termination of lipid peroxidation / prevention of induced microsomal lipid peroxidation [10]: efficient lipid peroxidation terminator | Antioxidant activity, FRAP [4]: 0.0025 ± 0.0011 mol Trolox equivalents (TE)/mol compound | pIC50 [11]: ~4.60 | Viability of MDA-MB-468 cells (reduced to) (MDA-MB-468 cells): about 65% | pIC50 ([5]; PEO1, 24 h): 3.58 | Concentration at which viability of MRC-5 cells was lowered (MRC-5 fibroblasts; 24 h exposure): 300 µM | pIC50 (MRC-5 fibroblasts; Homo sapiens, MRC5, 24 h): 3.57

C=CCSCC(N)C(=O)O (stereo in doubt) [S-Allyl-D-cysteine]
Antioxidant activity, DPPH^● Decolorization [1]: −0.020 ± 0.004 mol Trolox equivalents (TE)/mol compound | pIC50 [2]: 3.38 | Antioxidant activity, ABTS^● Decolorization [3]: 0.070 ± 0.059 mol Trolox equivalents (TE)/mol compound | Antioxidant activity, FRAP [4]: 0.0003 ± 0.0002 mol Trolox equivalents (TE)/mol compound | pIC50 (MRC-5 fibroblasts; [18]): 3.24

O=C(O)/C=C/c1ccc(O)cc1 [Coumaric acid]
Antioxidant activity, DPPH^● Decolorization [1]: 0.076 ± 0.005 mol Trolox equivalents (TE)/mol compound | Concentration range with no significant decrease in viability of SKOV-3 cells [2]: 0 to 1000 µM | pIC50 [12]: 2.85 | pIC50 (B16 melanocytes): 2.55 | pIC50 (A375 melanocytes): 2.60 | pIC50 (neuroblastoma N2a cells): 3.98 | Antioxidant activity, ABTS^● Decolorization [3]: 0.585 ± 0.082 mol Trolox equivalents (TE)/mol compound | Antioxidant activity, FRAP [4]: 0.153 ± 0.003 mol Trolox equivalents (TE)/mol compound | pIC50 [13]: 2.80 | Concentration range with no significant decrease in viability of PEO1 cells ([5]; 24 h exposure): 0 to 1000 µM | pIC50 [5, 17]: 2.85 | Concentration range with no significant decrease in viability of MRC-5 cells (MRC-5 fibroblasts; 24 h exposure): 0 to 1000 µM

alliin
Viability of MCF-7 cells (decreased down to) [14]: ca. 75% | Antioxidant activity, DPPH^● Decolorization [1]: 0.004 ± 0.001 mol Trolox equivalents (TE)/mol compound | Antioxidant activity, ABTS^● Decolorization [3]: 0.035 ± 0.012 mol Trolox equivalents (TE)/mol compound | Termination of lipid peroxidation / prevention of induced microsomal lipid peroxidation [10]: ineffective | Viability of HCC-70 cells (decreased down to) [15]: ca. 85% | Antioxidant activity, FRAP [4]: 0.0006 ± 0.0007 mol Trolox equivalents (TE)/mol compound | pIC50 (MRC-5 fibroblasts; 24 h exposure, Neutral Red): 3.49

C=CCSC[C@H](N)C(=O)O [SAC, S-allylcysteine]
Migration of SKOV-3 cells and their invasiveness (SKOV-3 cells): inhibited | Apoptosis of A2780 cells [16]: provoked apoptosis | Migration and invasiveness of A2780 cells [16]: attenuated | Proliferation of A2780 cells [16]: inhibited proliferation | Termination of lipid peroxidation / prevention of induced microsomal lipid peroxidation [10]: ineffective
